Source: article PMC4579270, “Identification and Characterization of an Irreversible Inhibitor of CDK2” (Chemistry & Biology, 2015)

Assays:
CDK2^K89V = biological target: T1, CDK2^K89V (Homo sapiens, UniProt P24941, K89V); test: ESI-MS of covalent adduct, mutant; settings: CDK2^K89V/cyclin A, overnight incubation
T1 construct: GST (N, cleaved yes); made in house; host or cells: Escherichia coli; phosphorylated in vitro by GST-CAK
Procedure: (§1) These residues were individually mutated to an alanine, glutamate, or valine, respectively, and the resulting mutant CDK2/cyclin A complexes were analyzed by ESI-MS following overnight incubation with either NU6300 (exact mass 413.15) or DMSO (Figure S2 and Table S1).
(§2) Figure S2, Related to Figure 3. Identification of the site of CDK2 modification by NU6300. (A-G) Single site CDK2 mutants CDK2D86A, CDK2K88E, and CDK2K89V identify the site of CDK2 modification by NU6300. These mutations change the CDK2 sequence to that of CDK7 and are known not to disrupt the CDK2 fold. Mass spectra of CDK2 mutants:
(§3) (A), (D), CDK2D86A/cyclin A; (B), (E), CDK2K88E/cyclin A; (C), (F), CDK2K89V/cyclin A (3 mg/mL) pre-incubated overnight in the absence/presence of NU6300. (A-C), positive controls, CDK2/cyclin A mutants assayed in the absence of NU6300; (D-F), CDK2/cyclin A mutants pre-incubated with NU6300. For each mutant, the experimentally determined and […]
(§4) (G) Protein kinase activity of authentic CDK2 and single site CDK2 mutants following incubation with NU6300 or NU6310. Samples were taken at the indicated number of minutes after initiation of the reaction. Note that compared to authentic CDK2, the single site Lys88 and Lys89 mutants have a slower rate of reaction (Compare LHS panels). […]

CDK2^D86A = biological target: T2, CDK2^D86A (Homo sapiens, UniProt P24941, D86A); test: ESI-MS of covalent adduct, mutant; settings: CDK2^D86A/cyclin A, overnight incubation
T2 construct: GST (N, cleaved yes); made in house; host or cells: Escherichia coli; phosphorylated in vitro by GST-CAK
Procedure: as §1, §2, §3, §4

Compound: C=CS(=O)(=O)c1ccc(Nc2nc(OCC3CCCCC3)c3nc[nH]c3n2)cc1 [NU6300, 6-(cyclohexylmethoxy)-N-(4-(vinylsulfonyl)phenyl)-9H-purin-2-amine]
- mass added to major CDK2 species (ESI-MS) (CDK2^K89V): no additional mass
- mass added to major CDK2 species (ESI-MS) (CDK2^D86A): 414 Da
